Laboratory results reported in patent US11452309B2, “Formula of preparations for oral and/or enteral feeding of children” (priority 2017, dated 2022).
In brackets after ≈: the same amount, converted by molar mass. Structures can show the parent of a compound that is named as a salt. Where two headings read alike, the source gives them in different places.

Assays:
[1] = cited from earlier work
[2] = Solubility of kynurenic acid and its sodium salt; assay type: physicochemical; conditions: water, converted from 100 mM, read-out: solubility in water, corresponding value

Row | Structure (SMILES) | solubility in 1.0 M NaOH ([1]; alkaline conditions, 1.0 M NaOH) [mg/mL] | solubility in water [1] [mg/mL] | solubility [2] [mg/mL] | solubility in water ([1]; sodium salt) [mM]
1 | O=C(O)c1cc(=O)c2ccccc2[nH]1 [kynurenic acid] | 50 (≈ 264 mM) | 0.95 |  | 
2 | O=C(O)c1cc(=O)c2ccccc2[nH]1 [sodium salt] |  |  | 21 | 100
